Tests used:
Assay in all cases: relative viability (nuclei count vs DMSO), 5 days (fraction); higher = more cells survive
RAF265 + Crizotinib = compound: Cn1c(Nc2ccc(C(F)(F)F)cc2)nc2cc(Oc3ccnc(-c4ncc(C(F)(F)F)[nH]4)c3)ccc21 [RAF265] + C[C@@H](Oc1cc(-c2cnn(C3CCNCC3)c2)cnc1N)c1c(Cl)ccc(F)c1Cl [Crizotinib] (partner 1 µM)
Summary of the method: (§1)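 Lung cancer cell lines were pin-tool dosed in 1536-well plates on the day after seeding, with either a lone drug or a fixed anchor-drug dose plus five library-drug doses (not always all listed) in √10 steps. Nuclei were counted on 4× images after 5 days. Relative viability is the ratio of treated-well to vehicle-well nuclei counts, with each value a median of duplicate plates.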

RAF265 + Vorinostat = compound: Cn1c(Nc2ccc(C(F)(F)F)cc2)nc2cc(Oc3ccnc(-c4ncc(C(F)(F)F)[nH]4)c3)ccc21 [RAF265] + O=C(CCCCCCC(=O)Nc1ccccc1)NO [Vorinostat] (partner 1 µM)
Summary of the method: as §1

IPA-3 + OSI-027 = compound: C1=CC=C2C(=C1)C=CC(=C2SSC3=C(C=CC4=CC=CC=C43)O)O [IPA-3] + COc1cccc2cc(-c3nc([C@H]4CC[C@H](C(=O)O)CC4)n4ncnc(N)c34)[nH]c12 [OSI-027] (partner 0.5 µM)
Summary of the method: as §1

Doramapimod + Tozasertib = compound: Cc1ccc(-n2nc(C(C)(C)C)cc2NC(=O)Nc2ccc(OCCN3CCOCC3)c3ccccc23)cc1 [Doramapimod] + Cc1cc(Nc2cc(N3CCN(C)CC3)nc(Sc3ccc(NC(=O)C4CC4)cc3)n2)n[nH]1 [Tozasertib] (partner 0.1 µM)
Summary of the method: as §1

Cell Line | relative viability (RAF265 + Crizotinib; first compound 0.01 µM) | relative viability (RAF265 + Crizotinib; first compound 0.03162 µM) | relative viability (RAF265 + Crizotinib; first compound 0.1 µM) | relative viability (RAF265 + Crizotinib; first compound 0.3162 µM) | relative viability (RAF265 + Crizotinib; first compound 1 µM) | relative viability (RAF265 + Vorinostat; first compound 0.01 µM) | relative viability (RAF265 + Vorinostat; first compound 0.03162 µM) | relative viability (RAF265 + Vorinostat; first compound 0.1 µM) | relative viability (RAF265 + Vorinostat; first compound 0.3162 µM) | relative viability (RAF265 + Vorinostat; first compound 1 µM) | relative viability (IPA-3 + OSI-027; first compound 0.2 µM) | relative viability (IPA-3 + OSI-027; first compound 0.6325 µM) | relative viability (IPA-3 + OSI-027; first compound 2 µM) | relative viability (IPA-3 + OSI-027; first compound 6.325 µM) | relative viability (IPA-3 + OSI-027; first compound 20 µM) | relative viability (Doramapimod + Tozasertib; first compound 0.02 µM) | relative viability (Doramapimod + Tozasertib; first compound 0.06325 µM) | relative viability (Doramapimod + Tozasertib; first compound 0.2 µM) | relative viability (Doramapimod + Tozasertib; first compound 0.6325 µM) | relative viability (Doramapimod + Tozasertib; first compound 2 µM)
EMC-BAC-2 | 0.747 | 0.685 | 0.617 | 0.501 | 0.234 | 0.449 | 0.359 | 0.306 | 0.141 | 0.103 | 0.435 | 0.379 | 0.367 | 0.482 | 0.438 | 0.284 | 0.286 | 0.272 | 0.304 | 0.238
NCI-H1355 | 1.11 | 1 | 1.02 | 0.766 | 0.337 | 0.641 | 0.607 | 0.578 | 0.604 | 0.419 | 0.417 | 0.42 | 0.407 | 0.398 | 0.378 | 0.543 | 0.538 | 0.55 | 0.556 | 0.495
NCI-H23 | 0.623 | 0.502 | 0.473 | 0.388 | 0.248 | 0.701 | 0.496 | 0.39 | 0.248 | 0.229 | 0.591 | 0.544 | 0.577 | 0.571 | 0.533 | 0.622 | 0.34 | 0.366 | 0.433 | 0.326
NCI-H1651 | 0.829 | 0.912 | 0.904 | 0.88 | 0.81 | 0.61 | 0.637 | 0.521 | 0.591 | 0.453 | 0.71 | 0.73 | 0.695 | 0.804 | 0.706 | 0.726 | 0.703 | 0.75 | 0.719 | 0.608
NCI-H1975 | 0.894 | 0.77 | 0.679 | 0.456 | 0.451 | 0.718 | 0.644 | 0.542 | 0.338 | 0.325 | 0.936 | 0.732 | 0.675 | 0.762 | 0.706 | 0.802 | 0.729 | 0.937 | 0.817 | 0.639
COR-L23 | 0.799 | 0.75 | 0.638 | 0.465 | 0.424 | 0.487 | 0.297 | 0.392 | 0.268 | 0.248 | 1.05 | 0.771 | 0.795 | 0.696 | 0.552 | 0.268 | 0.22 | 0.173 | 0.178 | 0.176
HCC-44 | 0.791 | 0.679 | 0.854 | 0.83 | 0.772 | 1.02 | 1.07 | 1.19 | 1.08 | 1.06 | 0.516 | 0.704 | 0.489 | 0.482 | 0.484 | 0.961 | 1.01 | 1.19 | 0.913 | 0.84
LOU-NH91 | 0.758 | 0.728 | 0.752 | 0.529 | 0.59 | 1 | 0.807 | 0.926 | 0.755 | 0.712 | 0.709 | 0.732 | 0.811 | 0.73 | 0.776 | 0.715 | 0.66 | 0.798 | 0.76 | 0.488
NCI-H441 | 0.779 | 0.656 | 0.715 | 0.73 | 0.473 | 0.802 | 0.712 | 0.643 | 0.715 | 0.421 | 0.819 | 0.613 | 0.527 | 0.54 | 0.426 | 0.719 | 0.63 | 0.576 | – | 0.622
NCI-H647 | 1.07 | 0.938 | 0.873 | 0.541 | 0.689 | 0.627 | 0.411 | 0.585 | 0.397 | 0.356 | 1.04 | 0.576 | 0.629 | 0.676 | 0.301 | 0.317 | 0.288 | 0.328 | 0.24 | 0.327
NCI-H1915 | 0.875 | 0.81 | 0.727 | 0.496 | 0.234 | 0.502 | 0.436 | 0.424 | 0.296 | 0.201 | 0.567 | 0.564 | 0.626 | 0.582 | 0.61 | 0.438 | 0.464 | 0.489 | 0.459 | 0.384
NCI-H1734 | 0.662 | 0.47 | 0.751 | 0.492 | 0.319 | 0.801 | 0.715 | 0.731 | 0.536 | 0.322 | 0.619 | 0.632 | 0.507 | 0.612 | 0.56 | 0.273 | 0.267 | 0.229 | 0.284 | 0.235
NCI-H1993 | 0.725 | 0.85 | 0.993 | 0.759 | 0.758 | 0.9 | 0.902 | 0.756 | 0.823 | 0.768 | 0.555 | 0.556 | 0.539 | 0.556 | 0.504 | 0.688 | 0.564 | 0.622 | 0.598 | 0.565
LK-2 | 0.203 | 0.222 | 0.239 | 0.237 | 0.223 | 0.361 | 0.245 | 0.328 | 0.404 | 0.2 | 0.183 | 0.214 | 0.194 | 0.27 | 0.165 | 0.186 | 0.182 | 0.18 | 0.179 | 0.192
HCC-78 | 0.337 | 0.288 | 0.381 | 0.301 | 0.359 | 0.459 | 0.485 | 0.464 | 0.645 | 0.406 | 0.419 | 0.407 | 0.641 | 0.382 | 0.353 | 0.404 | 0.537 | 0.291 | 0.471 | 0.402
NCI-H2405 | 0.846 | 0.803 | 0.872 | 0.756 | 0.566 | 1.02 | 0.888 | 1.08 | 0.683 | 0.465 | 0.651 | 0.644 | 0.669 | 0.691 | 0.666 | 0.774 | 0.703 | 0.675 | 0.869 | 0.635

Source: the supplement of paper PMC10307832
